Measurements as given in PubChem BioAssay AID743134 (The Scripps Research Institute Molecular Screening Center, 2013).
Active and inactive are the calls of the source.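 The calls were made as follows: active = compound cutting LYPLA1 and LYPLA2 activity by half or more in mouse liver, kidney or brain after 5 mg/kg; inactive = the rest.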

Molecular target: Acyl-protein thioesterase 1 (Mus musculus) (UniProt P97823)
Experiment: in vivo LYPLA1 target engagement in mouse tissues, late-stage follow-up, in vivo study for LYPLA1/LYPLA2 inhibitor project, mouse liver, brain, kidney proteomes, fluorescence gel (AID 743134)
Settings: C57BL6 mice i.p., tissue gel-based ABPP FP-Rh, 4 h

Sequence of Acyl-protein thioesterase 1 (Mus musculus) (P97823 whole entry, looked up): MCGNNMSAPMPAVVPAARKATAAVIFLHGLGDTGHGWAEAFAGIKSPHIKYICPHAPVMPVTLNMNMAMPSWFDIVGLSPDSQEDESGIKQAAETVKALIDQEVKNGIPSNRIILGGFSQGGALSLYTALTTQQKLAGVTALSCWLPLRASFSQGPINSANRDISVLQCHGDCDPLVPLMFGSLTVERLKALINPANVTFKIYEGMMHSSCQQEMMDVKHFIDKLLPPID

## O=C(ON1C(=O)C2CN(C(=O)N3CCOCC3)CCN2C1=O)N1CCC(CCc2ccc(Cl)cc2)CC1 (stereo not drawn)
Brain soluble proteome
  outcome: inactive
Kidney soluble proteome
  outcome: active
Liver soluble proteome
  outcome: active
